Common to all, as to format: cell-based, Salmonella enterica serovar Typhimurium
Test [1] relates to wild-type MA43 Salmonella. Briefly: Growth of Salmonella on Amadori products as sole carbon source. The conditions noted are these: NCE minimal medium, carbon source at 5 mM, 37° C. The method, then: FIG. 2A to FIG. 2E are graphs showing growth of wild-type and fraB1::kan mutant Salmonella on Amadori products. Growth of wild-type MA43 and fraB1::kan mutant MA59 on F-Asn (FIG. 2A), F-Arg (FIG. 2B), F-Lys (FIG. 2C), asparagine, arginine, lysine, or glucose (FIG. 2D). Bacteria were grown overnight in Luria Bertani (LB) broth at 37° C. with shaking, centrifuged, resuspended in water, and subcultured 1:1000 into minimal “no carbon E” (NCE) medium (containing trace metals) and the indicated carbon source at 5 mM. The optical density at 600 nm was then read at time points during growth at 37° C. with shaking. Controls included NCE with no carbon source, and NCE with glucose that was not inoculated, as a sterility control (FIG. 2D). FIG. 2E is a graph showing complementation of a fraB1::kan mutation with plasmid pASD5006 encoding the fra island (ASD6000) or the vector control, pWSK29 (ASD6010). Each point represents the mean of three cultures with error bars indicating standard deviation. FIG. 2A to FIG. 2C: ● wild-type; ◯ fraB mutant; FIG. 2D: ● Glucose wild-type; ◯ Glucose fraB mutant; □ No carbon source; ● Sterility; ⋄ Asn wild-type; * Arg wild-type; × Lys wild type; FIG. 2E: ◯ Glucose fraB mutant+pASD5006; ● Glucose fraB mutant+vector; ▪ F-Asn fraB mutant+pASD5006; F-Asn fraB mutant+vector; y-axis: OD600; x-axis: time (hours).
Amadori products most often result from a spontaneous reaction between a carbonyl group (often of glucose, although numerous other compounds can also react) and an amino group of an amino acid in vivo, and are then referred to as non-enzymatic glycation products. Zhang et al., 8 J. Proteome. Res. 754 (2009); Tessier, 58 Pathol. Biol. 214 (2010). With F-Lys and fructose-arginine (F-Arg) this can happen with the free amino acid, or the side groups of the lysine and arginine residues of a protein. In contrast, fructose-asparagine (F-Asn) can only result from reaction of glucose with the alpha amino group of free asparagine or the N-terminal asparagine of a protein. […]

The next test has as its system Wild-type (strain 14028). The test is described as follows: Growth inhibition by F-Asn in M9 glucose medium, wild-type. The conditions noted are these: M9 minimal medium with glucose and F-Asn. The method, then:
(§1) FIG. 25 reflects the determination of the IC50 and IC90 of F-Asn to a fraB mutant. Wild-type (strain 14028, ●), ΔfraB::kan (HMB206, □) or Δfra island (HMB205, ▴) were grown in M9 minimal medium containing 5 mM glucose and varying concentrations of F-Asn. The data points represent the optical density obtained after 15 hours of growth at 37° C.
(§2) Growth curves were performed using clear, flat-bottom, 96-well plates. Minimal media with the specified carbon source were prepared and overnight cultures were washed twice with sterile water. In each well, 198-μl aliquots of media were inoculated with 2 μl of washed overnight cultures. A Breathe-Easy membrane film (Diversified Biotech) was placed over each 96-well plate. Growth over 18 hr at 37° C. was measured using hourly OD600 measurements in a SpectraMax M5 (Molecular Devices) Microplate Reader and SoftMax Pro 6.1 software.
(§3) To determine if F-Asn was bacteriostatic or bactericidal to the fraB mutant, the 50% and 90% inhibitory concentration (IC50 and IC90) and the minimum bactericidal concentration (MBC) were characterized. The IC50 and IC90 were determined by adding increasing concentrations of F-Asn to M9 minimal medium containing glucose as the carbon source. Growth of the fraB mutant was then monitored in these media. […] To determine the MBC, a small aliquot of these same cultures was dilution-plated onto LB agar.

Test [2] deals with wild-type MA43 Salmonella. Briefly: Growth with F-Asn under aerobic and anaerobic conditions with or without tetrathionate. The note with it: 5 mM F-Asn. The protocol: FIG. 4A to FIG. 4D show growth of Salmonella on F-Asn in the presence or absence of tetrathionate or oxygen. Growth of wild-type MA43 and fraB1::kan mutant MA59 on 5 mM F-Asn or 5 mM glucose anaerobically (FIG. 4A and FIG. 4B) or aerobically (FIG. 4C and FIG. 4D) in the presence (FIG. 4A and FIG. 4C) or absence (FIG. 4B and FIG. 4D) of 40 mM tetrathionate (S406 22). Bacteria were grown overnight in LB at 37° C. shaking, centrifuged, resuspended in water, and subcultured 1:1000 into NCE medium containing the indicated carbon source. The optical density at 600 nm was then read at time points during growth at 37° C. with shaking. Each point represents the mean of four cultures with error bars indicating standard deviation. ● F-Asn wild-type; ▪ F-Asn fraB mutant; ▴ Glucose wild-type; ▾ Glucose fraB mutant; x-axis: time (hours); y-axis: OD600.
Growth with F-Asn was tested under aerobic and anaerobic conditions in the presence or absence of the terminal electron acceptor tetrathionate (FIG. 4A to FIG. 4D). […] Competition experiments in which the wild-type and fraB1::kan mutant were grown in the same culture were performed in minimal medium containing F-Asn. As expected, the mutant was severely attenuated during aerobic and anaerobic growth, and in the presence or absence of tetrathionate (FIG. 5). Indeed, the attenuation was most severe during anaerobic growth in the presence of tetrathionate.

For test [3], the system named is ΔfraB::kan (HMB206) fraB mutant. Briefly: Growth inhibition of fraB mutant by F-Asn in M9 glucose medium (IC50, IC90, MBC). The protocol: as §1, §2, §3
The test system of the next test is Δfra island (HMB205). Briefly: Growth inhibition by F-Asn in M9 glucose medium, fra island mutant. The note with it: M9 minimal medium with glucose and F-Asn. The method, then:
as §1, §2, §3

“Also recorded” adds a separate entry of the source.

As for fructose-arginine [F-Arg], in test [1], the “growth on Amadori product as sole carbon source” value (from here on “growth on Amadori product”) is listed as “unable to grow”.

In the case of fructose-lysine [F-Lys], the “growth on Amadori product” value in test [1] was “grew slowly and with low yield”.

Usually IC50 stands for the concentration that inhibits the measured activity by half. A lower IC50 goes with higher potency. Usually IC90 stands for the point of the concentration-response curve where the effect stands at 90%. For `NC(=O)C[C@@H](NCC1(O)OC[C@@H](O)[C@@H](O)[C@@H]1O)C(=O)O` (stereo partly drawn) [F-Asn, (2R)-4-amino-4-oxo-2-[[(3S,4R,5R)-2,3,4,5-tetrahydroxyoxan-2-yl]methylamino]butanoic acid], the inhibitory to growth entry in the test with Wild-type (strain 14028) and in the test on Δfra island (HMB205) was “not” throughout. Further, the “Salmonella doubling time on F-Asn” value in test [2] (aerobically with tetrathionate) turned out to be 1.6 ± 0.1 h; in test [2] (aerobically without tetrathionate), 2.0 ± 0.3 h; in test [2] (anaerobically with tetrathionate), 1.9 ± 0.1 h; in test [2] (anaerobically without tetrathionate), 2.9 ± 0.4 h. The compound also registered an IC50 in test [3] (Salmonella enterica, M9 minimal medium, 5 mM glucose, varying F-Asn, optical density after 15 hours at 37° C., 95% confidence interval 9 to 40 μM) of 19 µM. In test [3] (Salmonella enterica, M9 minimal medium, 5 mM glucose, varying F-Asn, optical density after 15 hours at 37° C., 95% confidence interval 82 to 368 μM), this compound gave a concentration for an effect of 90% (IC90) of 174 µM. The “minimum bactericidal concentration (MBC)” value in test [3] (aliquot of IC50 cultures dilution-plated onto LB agar, up to highest F-Asn concentrations tested) was “no MBC was revealed”. Moreover, the “bacteriostatic or bactericidal to the fraB mutant” value in test [3] (in vitro, cultures dilution-plated onto LB agar) is on record as “bacteriostatic; also recorded: bacteriostatic, not bactericidal”. For the same compound, the “growth on Amadori product” value in test [1] was “grew as well on F-Asn as on glucose”.

Source of the values: patent US10752933B2, “Methods for the identification, characterization, and use of inhibitors of the fructose-asparagine utilization pathway” (priority 2015, dated 2020).
